Values quoted from earlier work, collected in patent publication US12594435B2, “Interstitial photodynamic therapy” (Simphotek, Inc., priority 2020, dated 2026).
Read-outs that look alike come from different tables or passages of the source.

Experiments:
tumors in mice = settings: for Threshold [^1O2]dose: superficial PDT
Human prostate = settings: Davidson et.al., 2009
[1] = for β, k4/k2 / ξ photokinetic parameter / σ, k1/(k7[A]): Table 6, Zhu et. al. 2015, Ong et al 2018
experimental tumours [2] = settings: Rabbits, Shafirstein et. al., 2018
experimental tumours [3] = settings: Mice, Shafirstein et. al., 2018
[4] = Zhu et. al., 2015, labeled [^1O2]rx in the publication
[5] = surface PDT, Sheng et. al., 2019
[6] = I-PDT with light dose as dose metric
[7] = simulation parameter used in Dosie simulations, Examples 3 and 4
[8] = vascular PDT, Sheng et. al., 2020

For “2-(1-Hexyloxyethyl)-2-devinyl pyropheophorbide [HPPH]”, the “Threshold [^1O2]dose” value (tumors in mice; Penjweini et. al., 2016) is given as 0.98 ± 0.11 (Penjweini et. al., mM and the “Threshold PDT-dose” value (tumors in mice; surface PDT, Penjweini et. al., 2016) is given as 52.62 ± 14.9 (Penjweini et. al., μM J/cm^2.
In the case of CC[C@H]1c2cc3[n-]c4c(c3C)C(=O)[C@H](C(=O)OC)c4c3nc(cc4[n-]c(cc(n2)[C@@H]1C)c(C(C)=O)c4C)[C@@H](C)[C@@H]3CCC(=O)O.[Pd+2] [Tookad], the “Threshold Light Dose” value (Human prostate) is listed as >23 (Davidson et.al., 2009) J/cm^2, the “β, k4/k2” value [1] is listed as “Tookad: 11.9 μM” and the ξ photokinetic parameter [1] is listed as “Tookad: 122 × 10^−3 cm^2mW^−1s^−1”. For the same compound, the “σ, k1/(k7[A])” value [1] was “Tookad: 2.6 × 10^−5 μM^−1”.
For Oc1cccc(-c2c3nc(c(-c4cccc(O)c4)c4ccc([nH]4)c(-c4cccc(O)c4)c4nc(c(-c5cccc(O)c5)c5ccc2[nH]5)CC4)C=C3)c1 [mTHPC], the “ε, PS extinction coefficient” value ([1]; 650 nm) is listed as “mTHPC (650 nm): 0.048 cm^−1μM^−1”, the “β, k4/k2” value [1] is listed as “mTHPC: 8.7 μM” and the ξ photokinetic parameter [1] is listed as “mTHPC: 30.0 × 10^−3 cm^2mW^−1s^−1”. For the same compound, the “σ, k1/(k7[A])” value [1] was “mTHPC: 2.97 × 10^−5 μM^−1”.
In the case of Photofrin, the “Threshold [^1O2]dose” value (tumors in mice; Qiu et. al., 2016) is given as > 1.0 (Qiu et. al., 2016) mM, the “Threshold [^1O2]dose” value (tumors in mice; [4]) is given as 0.56 ± 0.26 (Zhu et. al., 2015) mM and the “Threshold Light Dose” value (tumors in mice; [5]) is given as “Approx. 100 (Sheng et. al., 2019) J/cm^2”. The “Threshold PDT-dose” value (tumors in mice; [5]) was 439 (Sheng et. al., 2019) μM J/cm^2, the “Threshold Fluence Rate φT” value (experimental tumours [2]; [6]) was 16.5 (Shafirstein et. al., 2018) mW/cm^2 and the “Threshold Light Dose” value (experimental tumours [2]; I-PDT) was ≥45 (Shafirstein et. al., 2018) J/cm^2. The “ε, PS extinction coefficient” value ([1]; 630 nm) was “Photofrin (630 nm): 0.0035 cm^−1μM^−1”, the “β, k4/k2” value [1] was “Photofrin: 11.9 μM” and the ξ photokinetic parameter [1] was “Photofrin: 3.7 × 10^−3 cm^2mW^−1s^−1”. The “σ, k1/(k7[A])” value [1] was “Photofrin: 7.6 × 10^−5 μM^−1”, the β [1, 7] was 11.9 and the “δ, low concentration correction” value [1, 7] was 33. The ξ [1, 7] was 3.7E-03, the σ [1, 7] was 7.6E-05 and the “Threshold Fluence Rate φT” value (experimental tumours [3]; [6]) was 8.4 (Shafirstein et. al., 2018) mW/cm^2. For the same compound, the “Threshold Light Dose” value (experimental tumours [3]; I-PDT) was ≥45 (Shafirstein et. al., 2018) J/cm^2.
In the case of “benzoporphyrin derivative monoacid ring A [BPD]”, the “Threshold [^1O2]dose” value (tumors in mice; Kim et. al. 2017) is given as 0.98 ± 012 (Kim et. al. 2017) mM, the “Threshold [^1O2]dose” value (tumors in mice; [4]) is given as 0.72 ± 0.21 (Zhu et. al., 2015) mM and the “Threshold PDT-dose” value (tumors in mice; surface PDT, Kim et. al., 2017) is given as 58 ± 12 (Kim et. al., 2017) μM J/cm^2. For the same compound, the “Threshold Light Dose” value (tumors in mice; [8]) was “Approx. 40 (vascular, Sheng et. J/cm^2”, the “Threshold PDT-dose” value (tumors in mice; [8]) was 7.5 (vascular, Sheng et. al., μM J/cm^2 and the “ε, PS extinction coefficient” value ([1]; 690 nm) was “BPD (690 nm): 0.0783 cm^−1μM^−1”. The “β, k4/k2” value [1] was “BPD: 11.9 μM”, the ξ photokinetic parameter [1] was “BPD: 51.0 × 10^−3 cm^2mW^−1s^−1” and the “σ, k1/(k7[A])” value [1] was “BPD: 1.7 × 10^−5 μM^−1”.
